Data on one compound can be found in patent US11083726B2, “Methods and compositions for treating vasomotor symptoms” (UNIVERSITY OF WASHINGTON THROUGH ITS CENTER FOR …, priority 2012, dated 2021).

Structures are written as SMILES.

In the test the test system is LH secretion. Briefly: LH secretion in ovariectomized mice after i.p. injection of a PRKA (serum LH by radioimmunoassay). The format is in vivo. The method, then: Female mice (000664 C57BL/6J) were obtained from The Jackson Laboratory (Sacramento, Calif., USA) at 8 weeks of age. All animals were housed on a 12:12-h light-dark cycle (lights off at 1800) with food and water available ad libitum. All experiments were conducted in accordance with the National Institutes of Health (NIH) Animal Care and Use Guidelines and with approval of the Animal Care and Use Committee of the University of Washington.
Mice were ovariectomized 13 days prior to the experiment, which occurred at approximately 11 weeks of age. Mice were anesthetized with isoflurane and bilaterally ovariectomized (OVX). Briefly, the animal's ventral skin was shaved and cleaned, and small incisions were made in the skin and abdominal musculature. The gonads were identified and excised, the abdominal muscle was sutured, and the skin incision was closed with surgical clips.
Mice were injected i.p. (<500 μl) with vehicle [0.9% sterile saline (Hospira, Lake Forest, Ill., USA) with 3.6% sterile DMSO (Sigma Aldrich, Inc., St. Louis, Mo., USA), n=7] or the following doses of the PRKA, ICI204,448 hydrochloride (Tocris Bioscience, Bristol, UK), diluted in sterile saline/DMSO: 0.1 mg/kg (0.018% DMSO, n=6), 1 mg/kg (0.18% DMSO, n=4), 10 mg/kg (1.8% DMSO, n=5), or 20 mg/kg (3.6% DMSO, n=7). N.B. 1 mg/kg and 10 mg/kg groups run in different experiment/assay. […]

On to `CN(C(=O)Cc1ccc(Cl)c(Cl)c1)C(CN1CCCC1)c1cccc(OCC(=O)O)c1.Cl` (racemic) [ICI 204,448 hydrochloride, (RS)-[3-[1-[[(3,4-Dichlorophenyl)acetyl]methylamino]-2-(1-pyrrolidinyl)ethyl]phenoxy]acetic acid hydrochloride], for which, for the setting “mice, 0.1, 1, 10, 20 mg/kg i.p., 1 mg/kg and 10 mg/kg in different experiment/assay”, the “LH secretion (FIG. 2)” value is listed as “dose-dependent decrease”. For the same compound, for the setting “ovariectomized mice, High Dose 20 mg/kg i.p., 20 minutes after injection, vs. Low Dose 0.1 mg/kg (P<0.01) and Vehicle (P<0.001)”, the LH post injection entry is “significantly decreased”.
